Results: US20080085333A1, “Composition Comprising Extract of Anemarrhena Asphodeloides and Aralia Elata,and Use Thereof” (MEDVILL CO., LTD., priority 2004, published 2008)
Values after ≈ are worked out from the molar mass of the structure shown.

Tests used:
[1] = system: PGE2 production in mouse macrophage cell line Raw264.7; assay: Inhibition of LPS-induced PGE2 production in macrophages (ELISA); type: cell-based; settings: Raw264.7, extract 1 hour before LPS, LPS 16 hours, read-out: IC50 for inhibition of PEG2 production
Source text: The effect of the inventive water or organic solvent extract of Anemarrhena asphodeloides and Aralia elata on the production of PGE2 (prostaglandin E2) in mouse macrophages was examined to measure a concentration at which a 50% inhibitory effect is shown. The PGE2 is a substance synthesized by a COX-2 enzyme in macrophages permeated skin when infected with foreign substances or germs, and the degree of inflammation and the secreted amount of PGE2 are closely connected with each other. Namely, as inflammation becomes more severe, the secretion of PGE2 increases.
Meanwhile, when mouse macrophage cell line Raw264.7 (obtained from Korean Cell Line Bank) is cultured in RPMI medium while it is treated with LPS (lipopolysaccharide) for 16 hours, the production of PGE2 will increase. Thus, 1 hour before the macrophage cell line was treated with LPS, the macrophage cell line was treated with each of the water extract of Anemarrhena asphodeloides or water extract of Aralia elata prepared in Example 1, the water extract of Anemarrhena asphodeloides and Aralia elata prepared in Example 2 and the ethanol extract of Anemarrhena asphodeloides and Aralia elata prepared in Example 3, at varying concentrations of 5 mg/ml, 1 mg/ml, 500 μg/ml, 100 μg/ml, 50 μg/ml and 10 μg/ml, and then measured for the amount of PEG2 produced. […]

[2] = system: Propionibacterium acnes (KCTC 3314); assay: Minimum inhibitory concentration in BHI broth, anaerobic culture, O.D. 660 nm; type: cell-based; settings: 37° C., 48-72 hours
Protocol: To measure the antibacterial effect of the inventive extract against Propionibacterium acnes, […] of BHI (brain heart infusion) broth was inoculated with a culture of Propionibacterium acnes (KCTC 3314) at a concentration of 1% (v/v). Then, the inoculated broth was treated with each of the water extract of Anemarrhena asphodeloides or water extract of Aralia elata prepared in Example 1, the water extract of Anemarrhena asphodeloides and Aralia elata prepared in Example 2 and the ethanol extract of Anemarrhena asphodeloides and Aralia elata prepared in Example 3 at varying concentrations of 0.1%, 1%, 5%, 10% and 20%. A negative control group was treated with physiological saline. […] As positive control groups, erythromycin and triclosan, which are known to have antiacne effect, were used.

Row | SMILES | IC50 [1] | MIC [2]
1 | CC(=O)Oc1ccccc1C(=O)O [aspirin] | 48 mg/L (≈ 266 µM) | –
2 | Oc1cc(Cl)ccc1Oc1ccc(Cl)cc1Cl [triclosan] | – | 0.001 ppm, v/v
3 | CC[C@H]1OC(=O)[C@H](C)[C@@H](O[C@H]2C[C@@](C)(OC)[C@@H](O)[C@H](C)O2)[C@H](C)[C@@H](O[C@@H]2O[C@H](C)C[C@H](N(C)C)[C@H]2O)[C@](C)(O)C[C@@H](C)C(=O)[C@H](C)[C@@H](O)[C@]1(C)O [erythromycin] | – | 0.0005 ppm, v/v
